In PubChem BioAssay (NCI):
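The concentration for 50% growth inhibition is given as GI50. TGI is the concentration that stops growth completely.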

How the values were obtained:
Experiment in all cases: growth of human tumour cells (NCI), 384-well format
SNB-19 CNS = tested on: SNB-19 CNS
SK-OV-3 ovarian = tested on: SK-OV-3 ovarian
CAKI-1 renal = tested on: CAKI-1 renal
M14 melanoma = tested on: M14 melanoma
OVCAR-8 ovarian = tested on: OVCAR-8 ovarian
HOP-62 NSCLC = tested on: HOP-62 NSCLC
HS 578T breast = tested on: HS 578T breast
MDA-MB-468 breast = tested on: MDA-MB-468 breast
T-47D breast = tested on: T-47D breast
NCI-H226 lung = tested on: NCI-H226 lung
NCI-H460 NSCLC = tested on: NCI-H460 NSCLC
A549 NSCLC = tested on: A549 NSCLC
ACHN renal = tested on: ACHN renal
NCI-H23 lung = tested on: NCI-H23 lung
MALME-3M melanoma = tested on: MALME-3M melanoma
UO-31 renal = tested on: UO-31 renal
SF-539 CNS = tested on: SF-539 CNS
SF-295 CNS = tested on: SF-295 CNS
SK-MEL-28 melanoma = tested on: SK-MEL-28 melanoma
SK-MEL-2 melanoma = tested on: SK-MEL-2 melanoma
U251 glioblastoma = tested on: U251 glioblastoma
LOX IMVI melanoma = tested on: LOX IMVI melanoma
EKVX NSCLC = tested on: EKVX NSCLC
UACC-62 melanoma = tested on: UACC-62 melanoma
OVCAR-5 ovarian = tested on: OVCAR-5 ovarian
K-562 leukemia = tested on: K-562 leukemia
SN12C renal = tested on: SN12C renal
786-0 renal = tested on: 786-0 renal
MCF7 breast = tested on: MCF7 breast
NCI-H322M lung = tested on: NCI-H322M lung
HCC-2998 colon = tested on: HCC-2998 colon
CCRF-CEM leukemia = tested on: CCRF-CEM leukemia
KM12 colon = tested on: KM12 colon
RPMI-8226 leukemia = tested on: RPMI-8226 leukemia
HCT-116 colon = tested on: HCT-116 colon
TK-10 renal = tested on: TK-10 renal
SF-268 CNS = tested on: SF-268 CNS
SK-MEL-5 melanoma = tested on: SK-MEL-5 melanoma
HCT-15 colon = tested on: HCT-15 colon
COLO 205 colon = tested on: COLO 205 colon
UACC-257 melanoma = tested on: UACC-257 melanoma
NCI/ADR-RES ovarian = tested on: NCI/ADR-RES ovarian
MDA-MB-231 breast = tested on: MDA-MB-231 breast
HL-60(TB) leukemia = tested on: HL-60(TB) leukemia
IGROV1 ovarian = tested on: IGROV1 ovarian
SNB-75 CNS = tested on: SNB-75 CNS
PC-3 prostate = tested on: PC-3 prostate
SW-620 colon = tested on: SW-620 colon
RXF 393 renal = tested on: RXF 393 renal
BT-549 breast = tested on: BT-549 breast
OVCAR-3 ovarian = tested on: OVCAR-3 ovarian
HT29 colon = tested on: HT29 colon
HOP-92 NSCLC = tested on: HOP-92 NSCLC
DU-145 prostate = tested on: DU-145 prostate
OVCAR-4 ovarian = tested on: OVCAR-4 ovarian
A498 renal = tested on: A498 renal
MDA-MB-435 melanoma = tested on: MDA-MB-435 melanoma
MOLT-4 leukemia = tested on: MOLT-4 leukemia

CC(C)c1cnc(-c2cc(Cl)ccc2F)cc1Nc1ccncc1C(=O)NC(CO)CO showed a GI50 (SNB-19 CNS) of 13.1 µM, a TGI (SNB-19 CNS) of 25.9 µM and a GI50 (SK-OV-3 ovarian) of 832 nM. For the same compound, the TGI (SK-OV-3 ovarian) was 14.2 µM, the GI50 (CAKI-1 renal) was 10.4 µM and the TGI (CAKI-1 renal) was 22.1 µM. It also gave a GI50 (M14 melanoma) of 4.27 µM, a TGI (M14 melanoma) of 19 µM and a GI50 (OVCAR-8 ovarian) of 1570 nM. It also gave a TGI (OVCAR-8 ovarian) of 5.09 µM, a GI50 (HOP-62 NSCLC) of 10.6 µM and a TGI (HOP-62 NSCLC) of 22.4 µM. The GI50 (HS 578T breast) was 10.5 µM, the TGI (HS 578T breast) was 22.3 µM and the GI50 (MDA-MB-468 breast) was 4.51 µM. For the same compound, the TGI (MDA-MB-468 breast) was 15.1 µM, the GI50 (T-47D breast) was 3.81 µM and the TGI (T-47D breast) was 17.2 µM. The GI50 (NCI-H226 lung) was 1200 nM, the TGI (NCI-H226 lung) was 12.2 µM and the GI50 (NCI-H460 NSCLC) was 12.3 µM. For the same compound, the TGI (NCI-H460 NSCLC) was 24.8 µM, the GI50 (A549 NSCLC) was 2220 nM and the TGI (A549 NSCLC) was 15 µM. The GI50 (ACHN renal) was 2340 nM, the TGI (ACHN renal) was 15.3 µM and the GI50 (NCI-H23 lung) was 892 nM. The TGI (NCI-H23 lung) was 9.05 µM, the GI50 (MALME-3M melanoma) was 2140 nM and the TGI (MALME-3M melanoma) was 11.2 µM. It also gave a GI50 (UO-31 renal) of 12.7 µM, a TGI (UO-31 renal) of 25.4 µM and a GI50 (SF-539 CNS) of 1160 nM. For the same compound, the TGI (SF-539 CNS) was 11.6 µM, the GI50 (SF-295 CNS) was 5.02 µM and the TGI (SF-295 CNS) was 17.7 µM. For the same compound, the GI50 (SK-MEL-28 melanoma) was 7.17 µM, the TGI (SK-MEL-28 melanoma) was 20.5 µM and the GI50 (SK-MEL-2 melanoma) was 20.5 µM. The TGI (SK-MEL-2 melanoma) was 34.8 µM, the GI50 (U251 glioblastoma) was 13.7 µM and the TGI (U251 glioblastoma) was 26.6 µM. It also gave a GI50 (LOX IMVI melanoma) of 1100 nM, a TGI (LOX IMVI melanoma) of 2820 nM and a GI50 (EKVX NSCLC) of 2570 nM. It also gave a TGI (EKVX NSCLC) of 16.8 µM, a GI50 (UACC-62 melanoma) of 852 nM and a TGI (UACC-62 melanoma) of 18.2 µM. For the same compound, the GI50 (OVCAR-5 ovarian) was 14.1 µM, the TGI (OVCAR-5 ovarian) was 27.1 µM and the GI50 (K-562 leukemia) was 7.06 µM. It also gave a TGI (K-562 leukemia) of 19.5 µM, a GI50 (SN12C renal) of 11.4 µM and a TGI (SN12C renal) of 23.6 µM. It also gave a GI50 ([…]-0 renal) of 9.73 µM, a TGI (786-0 renal) of 21.5 µM and a GI50 (MCF7 breast) of 124 nM. For the same compound, the TGI (MCF7 breast) was 5.16 µM, the GI50 (NCI-H322M lung) was 2010 nM and the TGI (NCI-H322M lung) was 15.6 µM. The GI50 (HCC-2998 colon) was 15.9 µM, the TGI (HCC-2998 colon) was 29.4 µM and the GI50 (CCRF-CEM leukemia) was 5.22 µM. It also gave a TGI (CCRF-CEM leukemia) of 17.1 µM, a GI50 (KM12 colon) of 2760 nM and a TGI (KM12 colon) of 15.9 µM. The GI50 (RPMI-8226 leukemia) was 172 nM, the TGI (RPMI-8226 leukemia) was 2000 nM and the GI50 (HCT-116 colon) was 10.7 µM. It also gave a TGI (HCT-116 colon) of 22.6 µM, a GI50 (TK-10 renal) of 10.3 µM and a TGI (TK-10 renal) of 22.1 µM. The GI50 (SF-268 CNS) was 3.8 µM, the TGI (SF-268 CNS) was 17.6 µM and the GI50 (SK-MEL-5 melanoma) was 11.6 µM. For the same compound, the TGI (SK-MEL-5 melanoma) was 23.8 µM, the GI50 (HCT-15 colon) was 12.7 µM and the TGI (HCT-15 colon) was 25.3 µM. For the same compound, the GI50 (COLO 205 colon) was 2560 nM, the TGI (COLO 205 colon) was 14 µM and the GI50 (UACC-257 melanoma) was 12.5 µM. The TGI (UACC-257 melanoma) was 25.1 µM, the GI50 (NCI/ADR-RES ovarian) was 10.8 µM and the TGI (NCI/ADR-RES ovarian) was 22.9 µM. It also gave a GI50 (MDA-MB-231 breast) of 964 nM, a TGI (MDA-MB-231 breast) of 14.5 µM and a GI50 (HL-60(TB) leukemia) of 263 nM. It also gave a TGI (HL-60(TB) leukemia) of 1570 nM, a GI50 (IGROV1 ovarian) of 13.2 µM and a TGI (IGROV1 ovarian) of 26 µM. It also gave a GI50 (SNB-75 CNS) of 12.1 µM, a TGI (SNB-75 CNS) of 24.5 µM and a GI50 (PC-3 prostate) of 2220 nM. For the same compound, the TGI (PC-3 prostate) was 11.7 µM, the GI50 (SW-620 colon) was 5.89 µM and the TGI (SW-620 colon) was 19.5 µM. It also gave a GI50 (RXF 393 renal) of 1360 nM, a TGI (RXF 393 renal) of 9.34 µM and a GI50 (BT-549 breast) of 383 nM. It also gave a TGI (BT-549 breast) of 3.2 µM, a GI50 (OVCAR-3 ovarian) of 12.8 µM and a TGI (OVCAR-3 ovarian) of 25.5 µM. It also gave a GI50 (HT29 colon) of 13.3 µM, a TGI (HT29 colon) of 26.1 µM and a GI50 (HOP-92 NSCLC) of 6.81 µM. The TGI (HOP-92 NSCLC) was 19.8 µM, the GI50 (DU-145 prostate) was 11.5 µM and the TGI (DU-145 prostate) was 23.7 µM. The GI50 (OVCAR-4 ovarian) was 581 nM, the TGI (OVCAR-4 ovarian) was 2650 nM and the GI50 (A498 renal) was 2330 nM. It also gave a TGI (A498 renal) of 16.1 µM, a GI50 (MDA-MB-435 melanoma) of 9.98 µM and a TGI (MDA-MB-435 melanoma) of 21.6 µM. It also gave a GI50 (MOLT-4 leukemia) of 5.48 µM and a TGI (MOLT-4 leukemia) of 17.7 µM.
